Results reported in patent US8338432B2, “Derivatives of 6,7-dihydro-3H-oxazolo[3,4-a]pyrazine-5,9-dione as PDE-5 inhibitors” (Biolab Sanus Farmaceutica Ltda., priority 2010, dated 2012).
Read-outs that look alike come from different tables or passages of the source.

How the values were obtained:
human corpus cavernosum = experiment: Relaxation of noradrenaline-contracted human isolated corpus cavernosum (isometric tension recording); conditions: human corpus cavernosum contracted with noradrenaline, 0.0001-1 μM, n=3
Protocol: (§1) Human corpus cavernosum and urether were obtained from discarded tissues from surgeries, which were placed in ice-cold Krebs solution for rapid transport to the laboratory.
(§2) Cavernosal strips, pulmonary artery, and urether were mounted in 10 ml organ chambers containing Kreb's solution at 37° C., pH 7.4 continuously bubbled with a mixture of 95% O2 and 5% CO2. The tissues were stretched to a resting force of 5 mN and allowed to equilibrate for 60 min. Changes in isometric force were recorded using a PowerLab 4/30 data acquisition system (Chart software, version 7.0; ADInstruments, Colo. Springs, Colo.). Cumulative concentration-response curves to compound 2 (named BL 106 in FIGS. 1, 2 and 3) (0.001-10 μM) were obtained in cavernosal strips, pulmonary artery rings, and urether contracted with noradrenaline (NOR 10 μM) (Sigma, St. Louis, Mo.). Concentration response curves to compound 2 (denoted BL 106 in FIGS. 1, 2 and 3) were constructed for each sample. For pulmonary artery, concentration response curves to compound 2 were also constructed in the presence or absence of the soluble guanylate cyclase inhibitor 1H-[1,2,4]Oxadiazolo[4,3-a]quinoxalin-1-one (ODQ 10 μM) (Sigma, St. Louis, Mo.). Control rings (treated with 40 mM DMSO) were also ran in parallel with experimental strips and rings.
Noradrenaline caused a sustained contraction in the human corpus cavernosum.

rabbit corpus cavernosum = experiment: Relaxation of noradrenaline-contracted rabbit isolated corpus cavernosum (isometric tension recording)
Protocol: as §2, with “Male New Zealand White rabbits (2-2.5 kg) were used for penis and pulmonary artery tissues, which were excised and transferred to ice-cold Kreb's solution. Two strips and four rings were obtained from each corpus cavernosum (CC) and pulmonary artery, respectively. Cavernosal” for “Cavernosal”, “rings. Noradrenaline (3 or 10 μM) caused a sustained contraction in rabbit corpus cavernosum (13.8 mN).” for “rings.”

human urether tissue = experiment: Relaxation of noradrenaline-contracted human isolated urether tissue (isometric tension recording); conditions: human urether contracted with noradrenaline, 0.0001-1 μM, n=3
Protocol: as §1, §2
Noradrenaline caused a sustained contraction in the human urether tissue.

rabbit pulmonary artery = experiment: Relaxation of noradrenaline-contracted rabbit isolated pulmonary artery rings (isometric tension recording)
Protocol: as §2, with “Male New Zealand White rabbits (2-2.5 kg) were used for penis and pulmonary artery tissues, which were excised and transferred to ice-cold Kreb's solution. Two strips and four rings were obtained from each corpus cavernosum (CC) and pulmonary artery, respectively. Cavernosal” for “Cavernosal”, “rings. Noradrenaline (3 or 10 μM) caused a sustained contraction in the rabbit pulmonary artery (17.4 mN).” for “rings.”

[1] = read-out: pEC50 of relaxation (converted)

Row | Structure (SMILES) | Emax (human corpus cavernosum) | EC50 (human corpus cavernosum; [1]) | Emax (rabbit corpus cavernosum; Oryctolagus cuniculus, rabbit corpus cavernosum contracted with noradrenaline, n=3) | EC50 (rabbit corpus cavernosum; Oryctolagus cuniculus, rabbit corpus cavernosum contracted with noradrenaline, n=3, read-out: EC50 of relaxation (bracketed after pEC50) (converted)) | EC50 (rabbit corpus cavernosum; Oryctolagus cuniculus, rabbit corpus cavernosum contracted with noradrenaline, n=3, read-out: pEC50 of relaxation (converted)) | Emax (human urether tissue) | EC50 (human urether tissue; [1]) | Emax (rabbit pulmonary artery; Oryctolagus cuniculus, rabbit pulmonary artery rings contracted with noradrenaline, 0.001-10 μM, n=3) | EC50 (rabbit pulmonary artery; Oryctolagus cuniculus, rabbit pulmonary artery rings contracted with noradrenaline, 0.001-10 μM, n=3, read-out: pEC50 of relaxation (converted)) | EC50 (rabbit pulmonary artery; Oryctolagus cuniculus, rabbit pulmonary artery rings contracted with noradrenaline, n=3, read-out: EC50 of relaxation (bracketed after pEC50) (converted)) | sustained contraction (rabbit corpus cavernosum; rabbit corpus cavernosum, noradrenaline 3 or 10 μM) | sustained contraction (rabbit pulmonary artery; rabbit pulmonary artery, noradrenaline 3 or 10 μM)
1 | CN1CC(=O)N2C(=C(c3c[nH]c4ccccc34)OC2c2ccc3c(c2)OCO3)C1=O (racemic) [Compound 2, (R,S)-3-(1,3-benzodioxol-5-yl)-1-(1H-indol-3-yl)-7-methyl-6,7-dihydro[1,3]oxazolo[3,4-a]pyrazine-5,8-dione] | 71% | 22.4 nM | 91% | 1200 nM | 1200 nM | 49% | 513 nM | 62% | 589 nM | 588 nM |  | 
2 | NC[C@H](O)c1ccc(O)c(O)c1 [Noradrenaline, noradrenaline, reference compound] |  |  |  |  |  |  |  |  |  |  | 13.8 mN | 17.4 mN
